Reference: article PMC11056381, “Characterization and evaluation of cytotoxic and antimicrobial activities of cyclotides from Viola japonica” (Scientific Reports, 2024)
Residues, ends and D or L forms follow the SMILES beside them.

Columns and labels:
Assay type in all cases: cell-based
[1] = tested on: Salmonella paratyphi (CMCC(B)50094-2-9); experiment: MIC, broth dilution in 96-well plate; conditions: 10^6 CFU/ml, overnight 37 °C, visual clarity, performed at least three times
From the text: (§1) Cycloviolacin O2, known for its antimicrobial, hemolytic, and insecticidal activities, has been more extensively investigated[4],[20],[36]–[38]. Viba 11, originally discovered in Viola baoshanensis[39] and found in other plants such as Viola tricolor[40], Viola betonicifolia, and Viola philippica, lacks biological activity studies. These two cyclotides and vija 10 are high in content and easy to purify, and cycloviolacin O2 can also be used as a positive control to conduct activity study. In addition, few vija12 and 31 were extracted for antibacterial experiments. All purified cyclotides underwent antibacterial testing against Gram-positive bacterium Staphylococcus aureus (CMCC(B)26003-2-10) and Bacillus subtilis (CMCC(B)63501), Gram-negative bacteria, including Acinetobacter baumannii (ATCC19606), Escherichia coli (CMCC(B)44102-2-6), and Salmonella paratyphi (CMCC(B)50094-2-9). […] In addition, the MICs of viba 11, cycloviolacin O2 and vija 10 against B. subtilis were respectively 5.4 μM, 2.1 μM and 14.3 μM (Table 1). […] Therefore, it is hypothesized that the lower antimicrobial activity of vija 10 may be attributed to the presence of only one Lys residue in loop 5.
(§2) Bacterial fluids are cultured overnight at 37 °C. The next day, the bacterial liquids are diluted to a concentration of 10^6 CFU/ml. Prepare different concentrations of cyclotide drugs and kanamycin sulfate in advance, and sequentially add the drugs and bacterial liquid to the 96-well plate. Negative controls consisted of sterile water and bacterial liquid. The plate is cultured overnight at 37 °C and observe whether the solution remains clear to see the growth of the bacterial suspension. Each test was performed three times at least.

[2] = tested on: Staphylococcus aureus (CMCC(B)26003-2-10); experiment: MIC, broth dilution in 96-well plate; conditions: 10^6 CFU/ml, overnight 37 °C, visual clarity, performed at least three times
From the text: as §1, §2

[3] = tested on: Bacillus subtilis; experiment: Time killing kinetics; conditions: about 10^6 CFU/mL, LB, 37 °C, colony count
Method: In this study, we investigated the time-kill kinetics characteristics of plant cyclotides against bacteria. […] It is worth noting that due to experimental constraints, there was a slight discrepancy of a few minutes between theoretical 0 h and actual 0 h. […] Furthermore, we also conducted time-kill kinetics studies using vija 10 against B. subtilis.
Figure 4 (A) The Acinetobacter baumannii time killing kinetics of cycloviolacin O2 at concentration of 1 MIC, 2 MIC, 4 MIC and 8 MIC at 37 °C. (B) The Bacillus subtilis time killing kinetics of vija 10 at concentration of 1 MIC, 2 MIC, 4 MIC at 37 °C. Each test was performed three times at least.
Incubate A. baumannii and B. subtilis in fresh nutrient LB broth at 37 °C until logarithmic growth stage, then dilute to approximately 10^6 CFU/mL, and incubate with cycloviolacin O2 at concentrations of 1 MIC, 2 MIC, 4 MIC, 8 MIC with A. baumannii and vija 10 at concentrations of 1 MIC, 2 MIC, 4 MIC with B. subtilis respectively. Taking the mixture at time points of 0 h, 0.5 h, 1 h, 1.5 h and 2 h, dilute and coat it to solid medium for 24 h. Count the number of colonies on solid culture medium. Each test was performed three times at least. Plotting a line graph with time on the x-axis and bacterial survival on the y-axis using GraphPad Prism 8. Statistical analysis of bacterial viability at different time points to determine the bactericidal and bacteriostatic effects of cyclotides.

[4] = tested on: Bacillus subtilis; experiment: DAPI/PI staining, laser scanning confocal microscopy (membrane integrity); conditions: B. subtilis 10^8 CFU/mL, 37 °C, 1-2 h, DAPI and PI staining
From the text: Many naturally occurring antimicrobial peptides (AMPs) are cationic. Cationic AMPs (CAMPs) exert bactericidal activity by mechanisms featuring cell membrane disruption. Cyclotides are likely to kill germ by disrupting their membranes. Laser scanning confocal microscopy can be used to study the ability of cyclotides to destroy bacterial membrane. 4′, 6-diaminyl-2-phenylindole (DAPI) is a blue fluorescent dye that can penetrate membranes and stain both living and dead strains, while propyl iodide (PI) stains only strains with damaged membranes, glowing red[46],[47]. In this study, the bracelet cyclotide family members viba 11 and vija 10 interacted with A. baumannii and B. subtilis in their logarithmic phase at 37 °C for 1–2 h. After the addition of DAPI and PI fluorescent dyes, the samples were incubated in a dark room at room temperature for 15 min for staining. The stained samples were then centrifuged to concentrate, resuspended, and applied to a slide for observation using a confocal laser scanning microscope (FLUOVIEW FV3000, Olympus). […] With increasing concentration, the blue and red fluorescence gradually overlapped. […] However, the magnification is not sufficient to detect further details of membrane disruption. Therefore, further exploration can be conducted using methods such as scanning electron microscopy (SEM) to study the antibacterial mechanism in depth.
Figure 5 Study on the antimicrobial mechanism of cyclotides. (A) Incubation of Acinetobacter baumannii with sterile water, 1 MIC and 4 MIC of viba 11. (B) Incubation of Bacillus subtilis with sterile water, 1 MIC and 4 MIC of vija 10. All samples were stained with DAPI and PI. The negative control group PI is not stained and the membrane is intact, while the membrane treated with cyclotides was stained and the membrane are destroyed. Scale bar: 20 μm. Magnification: 600×.
Take 50 μL of A. baumannii and B. subtilis (10^8 CFU/mL), and add 50 μL of sterile water, different concentrations of cyclotides viba 11 and vija 10 to achieve final concentrations of 1 MIC and 4 MIC respectively. Incubate at 37 °C for 1–2 h. Subsequently, add 4,6-diamino-2-phenylindole (DAPI) and propidium iodide (PI) dyes at 20 μg/mL each, and incubate in the dark for 15 min. Centrifuge at 5000 rpm for 3 min to concentrate, discard the majority of the supernatant, and resuspend the bacteria in the remaining small volume of liquid. Mix well and take 10 μL of the stained sample onto a glass slide, gently place a cover slip on top with forceps, avoiding the formation of bubbles during the pressing process. After sealing the cover slip, check with a laser confocal microscope, and the observation was conducted using an objective lens with the maximum magnification of 60 × . […]

## CC[C@H](C)[C@@H]1NC(=O)[C@@H]2CSSC[C@@H]3NC(=O)[C@H](C(C)C)NC(=O)[C@H](CCCCN)NC(=O)[C@H](CO)NC(=O)[C@H](CO)NC(=O)[C@@H]4CSSC[C@H](NC(=O)[C@H](CO)NC(=O)[C@H](CCC(=O)O)NC(=O)CNC(=O)[C@H](CSSC[C@H](NC(=O)CNC(=O)[C@H](CC(C)C)NC(=O)[C@H](CC(C)C)NC(=O)[C@H](C)NC(=O)[C@H](CO)NC1=O)C(=O)N[C@@H](CO)C(=O)N4)NC(=O)[C@@H]1CCCN1C(=O)[C@H]([C@@H](C)CC)NC(=O)[C@H](CO)NC(=O)CNC(=O)[C@H](CC(N)=O)NC(=O)[C@H](CCCCN)NC(=O)[C@H](Cc1ccc(O)cc1)NC3=O)C(=O)N[C@@H](C(C)C)C(=O)N[C@@H](Cc1ccccc1)C(=O)N[C@@H]([C@@H](C)CC)C(=O)N1CCC[C@H]1C(=O)N2 [vija 10] (HELM PEPTIDE1{A.L.L.G.C.S.C.S.S.K.V.C.Y.K.N.G.S.I.P.C.G.E.S.C.V.F.I.P.C.I.S}$PEPTIDE1,PEPTIDE1,5:R3-20:R3|PEPTIDE1,PEPTIDE1,7:R3-24:R3|PEPTIDE1,PEPTIDE1,12:R3-29:R3|PEPTIDE1,PEPTIDE1,1:R1-31:R2$$$V2.0)
[1]
  MIC: > 28.5 µM
[2]
  MIC: > 28.5 µM
[3]; 2 MIC
  time of treatment to complete eradication of B. subtilis: 2 h
[3]; 4 MIC
  time of treatment to effective killing of B. subtilis: 1 h
[4]; 1 MIC
  membrane integrity (PI red fluorescence): caused damage to the membrane integrity
[4]; 4 MIC
  membrane integrity (PI red fluorescence): majority of the cell membranes were ruptured
